Assay results: ChEMBL document CHEMBL1201862, “PubChem BioAssay data set” (2004)
Active and inactive are the calls of the source.

Legend:
[1] = target: T1, Zinc finger protein mex-5 (Caenorhabditis elegans, UniProt Q9XUB2); test: MEX-5/TCR-2 RNA interaction inhibitors, dose response, biochemical, C. elegans, fluorescence polarization (AID 1960)
T1 sequence (Q9XUB2 whole entry): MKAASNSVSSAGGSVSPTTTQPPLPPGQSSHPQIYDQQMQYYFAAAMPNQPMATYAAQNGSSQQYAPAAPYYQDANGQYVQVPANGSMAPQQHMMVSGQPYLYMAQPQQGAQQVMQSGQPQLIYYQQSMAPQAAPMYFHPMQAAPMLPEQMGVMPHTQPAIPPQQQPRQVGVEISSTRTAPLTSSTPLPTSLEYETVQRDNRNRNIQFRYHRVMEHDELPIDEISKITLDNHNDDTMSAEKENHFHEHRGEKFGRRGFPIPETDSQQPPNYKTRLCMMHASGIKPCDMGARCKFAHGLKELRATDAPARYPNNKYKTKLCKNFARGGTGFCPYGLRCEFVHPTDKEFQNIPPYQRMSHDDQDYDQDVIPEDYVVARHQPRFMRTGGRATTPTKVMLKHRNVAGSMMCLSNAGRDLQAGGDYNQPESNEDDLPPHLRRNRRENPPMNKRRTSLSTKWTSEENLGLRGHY

[2] = target: T2, RNA-binding protein pos-1 (Caenorhabditis elegans, UniProt G5EF15); test: inhibitors of POS-1/mex-3 RNA binding, dose response, biochemical, fluorescence polarization (AID 1964);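 further: purified POS-1 fused to maltose binding protein made in E. coli; potency of compounds blocking POS-1 binding to fluorescent RNA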
T2 sequence (G5EF15 whole entry): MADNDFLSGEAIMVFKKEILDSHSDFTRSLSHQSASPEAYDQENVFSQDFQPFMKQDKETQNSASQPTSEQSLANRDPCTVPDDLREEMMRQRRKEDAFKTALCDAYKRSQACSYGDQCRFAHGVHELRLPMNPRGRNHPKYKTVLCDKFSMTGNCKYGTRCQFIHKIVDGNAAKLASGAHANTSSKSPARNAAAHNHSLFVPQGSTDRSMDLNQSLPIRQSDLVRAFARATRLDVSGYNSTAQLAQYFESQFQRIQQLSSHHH

[3] = MC4R antagonists, dose response, counter-screen for LGR2 antagonist project, cell-based, plate reader, cherry pick (AID 743444); format: functional;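 further: transfected HEK 293 cells stimulated with alpha-MSH peptide; potency of inhibitors of the alpha-MSH evoked signal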
[4] = LGR2 antagonists, dose response, cell-based, HEK293, CRE-luciferase reporter, cherry pick, set 2 (AID 743343); format: functional;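 further: transfected cells were stimulated with diluted bursicon conditioned medium after compound addition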
[5] = target: T3, Corticotropin-releasing factor receptor 2/Corticotropin-releasing factor-binding protein (Homo sapiens, UniProt P24387+Q13324); test: activators of CRF receptor 2 with binding protein – uHTS hits, confirmation (AID 602473); format: functional; conditions: read-out: EC50_Mean
T3 sequence (Q13324 whole entry): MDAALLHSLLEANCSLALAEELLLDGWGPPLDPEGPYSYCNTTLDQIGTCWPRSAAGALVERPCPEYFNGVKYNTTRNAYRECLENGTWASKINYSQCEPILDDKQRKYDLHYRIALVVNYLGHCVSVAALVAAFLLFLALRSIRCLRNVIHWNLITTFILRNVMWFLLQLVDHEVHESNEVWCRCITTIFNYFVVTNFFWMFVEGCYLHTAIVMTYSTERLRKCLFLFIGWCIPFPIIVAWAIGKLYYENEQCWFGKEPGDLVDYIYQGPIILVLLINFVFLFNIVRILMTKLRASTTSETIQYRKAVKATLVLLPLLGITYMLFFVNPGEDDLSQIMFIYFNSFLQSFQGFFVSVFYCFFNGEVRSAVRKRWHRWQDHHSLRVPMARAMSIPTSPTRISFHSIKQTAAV
T3 sequence (P24387 whole entry): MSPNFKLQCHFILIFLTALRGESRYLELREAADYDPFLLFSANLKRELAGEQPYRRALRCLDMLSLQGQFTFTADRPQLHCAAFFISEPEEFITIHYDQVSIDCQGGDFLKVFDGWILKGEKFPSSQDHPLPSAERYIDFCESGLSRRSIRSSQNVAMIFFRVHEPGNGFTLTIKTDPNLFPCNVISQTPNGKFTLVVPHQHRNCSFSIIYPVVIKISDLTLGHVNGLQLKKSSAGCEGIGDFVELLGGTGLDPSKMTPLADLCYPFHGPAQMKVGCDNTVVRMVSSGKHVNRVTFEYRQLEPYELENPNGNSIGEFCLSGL

[6] = NIH-3T3 fibroblast cytotoxicity, dose response, cytotoxicity control, cell-based, fluorescence, Alamar Blue, secondary assay (AID 2327); format: functional;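 further: NIH-3T3 mouse fibroblasts cultured with fluconazole at 8 µg/mL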
[7] = target: T4, Ubiquitin-conjugating enzyme E2 N (Homo sapiens, UniProt P61088); format: functional;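 further: Dose-response confirmation in a TR-FRET assay detecting UBC13-driven polyubiquitin chain formation, inhibition measured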
T4 sequence (P61088 whole entry): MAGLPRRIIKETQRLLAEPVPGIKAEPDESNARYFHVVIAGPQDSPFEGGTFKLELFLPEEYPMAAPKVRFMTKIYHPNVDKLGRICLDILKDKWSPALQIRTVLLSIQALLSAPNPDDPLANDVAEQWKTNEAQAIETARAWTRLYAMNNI

[8] = C. albicans growth with fluconazole, confirmation, fluorescence, retest (AID 2467); format: functional, cell-based
[9] = tested on: Streptococcus sp. 'group A'; test: growth inhibition of control SK(-) GAS strain, dose response, counter-screen for streptokinase expression inhibitor project, luminescence, kanamycin, BacTiterGlo, confirmation (AID 1900); format: functional, organism-based
[10] = target: T5, Streptokinase A (Streptococcus pyogenes serotype M1, UniProt P10520); test: S. pyogenes streptokinase expression inhibitors, potency, dose response, plasminogen activation absorbance, OD405 (AID 1914); format: functional, Streptococcus pyogenes M1 GAS;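 further: secreted streptokinase activity via plasminogen activation per viability signal from cell pellet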
T5 sequence (P10520 whole entry): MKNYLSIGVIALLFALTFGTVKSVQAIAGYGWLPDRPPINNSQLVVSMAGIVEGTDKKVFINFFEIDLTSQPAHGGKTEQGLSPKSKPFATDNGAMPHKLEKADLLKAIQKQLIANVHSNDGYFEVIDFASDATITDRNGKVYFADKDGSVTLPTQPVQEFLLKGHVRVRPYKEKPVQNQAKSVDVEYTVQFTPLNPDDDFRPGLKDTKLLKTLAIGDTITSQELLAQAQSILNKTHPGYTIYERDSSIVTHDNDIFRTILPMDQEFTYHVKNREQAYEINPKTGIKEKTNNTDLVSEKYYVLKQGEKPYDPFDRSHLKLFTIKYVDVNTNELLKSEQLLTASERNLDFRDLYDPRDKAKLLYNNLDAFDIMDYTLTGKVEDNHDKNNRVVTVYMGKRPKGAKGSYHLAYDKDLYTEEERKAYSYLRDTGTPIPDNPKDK

[11] = tested on: INS1; test: beta cell apoptosis inhibitors, cytokine rescue, dose response, luminescence, retest (AID 449756); format: functional, cell-based; conditions: Rattus norvegicus;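 further: cell death triggered by IL-1 beta plus TNF-alpha plus IFN-gamma mixture; protective hits raise ATP signal compared with cytokine alone wells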
[12] = tested on: Streptococcus; test: Group A Streptococcus viability loss, dose response, counter-screen for streptokinase expression inhibitor project, luminescence, BacTiterGlo (AID 1915); format: functional, organism-based;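 further: potency for reduction of bacterial viability or growth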
[13] = microbe, parasite or virus in culture; format: functional; conditions: Mycobacterium tuberculosis
[14] = HEp-2 cell cytotoxicity, dose response, cytotoxicity control for RSV inhibitor project, HTS (AID 2410); format: functional; conditions: human respiratory syncytial virus
[15] = tested on: H9c2; test: cells; format: functional, cell-based; conditions: Rattus norvegicus, H9c2, Myocardium;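 further: confirmatory concentration-response retest of ultra-high-throughput screening hits for modulation of myocardial damage; cell death induced by hydrogen peroxide oxidative stress; compound pretreatment for 60 min then peroxide exposure for 2 h; potency is for protecting the cells against peroxide damage rather than for killing them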
[16] = target: T6, Cytochrome P450 1A2 (Homo sapiens, UniProt P05177);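 further: PubChem cytochrome P450 panel assay, CYP1A2 panel member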
T6 sequence (P05177 whole entry): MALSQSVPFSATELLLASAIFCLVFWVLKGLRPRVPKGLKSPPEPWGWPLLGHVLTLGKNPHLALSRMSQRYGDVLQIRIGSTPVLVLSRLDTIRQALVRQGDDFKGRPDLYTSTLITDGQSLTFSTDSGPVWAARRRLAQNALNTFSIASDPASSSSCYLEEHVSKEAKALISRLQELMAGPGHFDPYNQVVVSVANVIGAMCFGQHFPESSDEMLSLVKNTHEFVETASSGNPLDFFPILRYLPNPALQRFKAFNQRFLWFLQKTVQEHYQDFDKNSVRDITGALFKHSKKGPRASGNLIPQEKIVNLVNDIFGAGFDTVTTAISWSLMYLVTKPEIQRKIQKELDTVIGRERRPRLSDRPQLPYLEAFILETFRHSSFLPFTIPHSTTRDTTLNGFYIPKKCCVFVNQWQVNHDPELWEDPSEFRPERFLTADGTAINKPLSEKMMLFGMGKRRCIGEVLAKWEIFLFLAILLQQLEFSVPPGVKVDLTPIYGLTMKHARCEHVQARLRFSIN

[17] = target: Cytochrome P450 2D6 (Homo sapiens, UniProt P10635);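 further: CYP2D6 member of a cytochrome P450 panel assay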
[18] = growth suppression of PTEN-null colon cells, dose response, cell-based, HCT116 PTEN knockout (AID 1047); format: functional;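 further: HCT116 colon tumor cells with PTEN knocked out; cells exposed to compound for 60 hours before readout; potency for loss of cell viability measured by luminescence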
[19] = growth suppression of beta-catenin-knockout colon cells, dose response, cell-based, HCT116, human colon tumor (AID 1045); format: functional;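 further: HCT116 colon tumor cells with beta catenin knocked out; cells exposed to compound for 60 hours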

Chain of Cytochrome P450 2D6 (P10635 whole entry): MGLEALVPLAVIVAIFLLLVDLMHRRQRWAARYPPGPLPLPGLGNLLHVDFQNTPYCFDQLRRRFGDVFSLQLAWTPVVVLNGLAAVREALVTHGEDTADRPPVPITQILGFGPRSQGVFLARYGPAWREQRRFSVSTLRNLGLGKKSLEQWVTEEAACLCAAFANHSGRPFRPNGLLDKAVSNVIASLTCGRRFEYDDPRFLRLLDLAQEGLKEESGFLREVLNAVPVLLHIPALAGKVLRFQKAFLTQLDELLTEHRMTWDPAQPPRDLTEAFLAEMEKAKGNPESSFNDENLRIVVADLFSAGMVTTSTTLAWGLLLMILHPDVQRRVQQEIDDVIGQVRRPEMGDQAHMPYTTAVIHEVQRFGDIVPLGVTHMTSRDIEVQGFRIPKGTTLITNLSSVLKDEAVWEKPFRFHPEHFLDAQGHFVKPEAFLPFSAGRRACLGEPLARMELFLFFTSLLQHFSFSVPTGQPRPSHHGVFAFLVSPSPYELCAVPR

Compound: Cn1ncc2c(NNC(=O)c3ccc(O)cc3)ncnc21
- EC50 [1]: 6.35 µM (active)
- EC50 [2]: 39.5 µM (active)

Compound: COc1ccccc1N=C(S)NNC(=O)c1cc(C)n(C)n1
- EC50 [1]: 58.4 µM (active)
- EC50 [2]: 50.3 µM (active)

Compound: Cc1cccc(Oc2nc(-c3ccccn3)nc3ccccc23)c1
- EC50 [1]: 173 µM (active)
- EC50 [2]: > 300 µM (not active)

Compound: CC1CN(C2CC(C)(C)NC(C)(C)C2)CCC1=O (configuration not stated)
- EC50 [1]: > 300 µM (not active)
- EC50 [2]: > 300 µM (not active)

Compound: c1ccc(-n2ncc3c(N4CCCCC4)ncnc32)cc1
- AC50 [3]: 2.83 µM (active)
- AC50 [4]: 1.94 µM (active)

Compound: O=[N+]([O-])c1cc(-c2ccc([As](=O)(O)O)cc2)ccc1[As](=O)(O)O
- EC50 [1]: 18 µM (active)
- EC50 [2]: 22.8 µM (inconclusive)

Compound: O=C1c2ccccc2C(=O)N1c1ncc(Cc2ccc(Cl)cc2)s1
- EC50 [5]: 2.43 µM (active)

Compound: O=C(O)c1ccc(NC(=O)C2CCCCC2)cc1
- EC50 [5]: > 53 µM (inactive)

Compound: CCCCCc1ccc(OCCCC[n+]2ccccc2)c(CCCCC)c1
- EC50 [6]: > 160 µM (inactive)
- IC50 [7]: > 20 µM (inactive)
- EC50 [8]: < 0.03 µM (active)
- EC50 [9]: 3.85 µM (active)
- EC50 [10]: 27.1 µM (active)
- AC50 [11]: 2.79 µM (active)
- EC50 [12]: 8.33 µM (active)

Compound: O=C(Nc1ccc(OC(F)(F)F)cc1)c1ccc2c(c1)no[n+]2[O-]
- CC50 [13]: 20.6 µM (active)

Compound: CC(=O)c1ccccc1OCC(O)CN1CCN(CCN2C(=O)c3cccc4cccc(c34)C2=O)CC1 (configuration not stated)
- IC50 [7]: > 20 µM (inactive)
- CC50 [14]: > 50 µM (active)
- IC50 [15]: 23.1 µM (active)

Compound: CN(C)CCNc1oc(COc2ccc(Cl)cc2Cl)nc1C#N
- IC50 [7]: > 20 µM (inactive)
- AC50 [16]: 25.1 µM (inconclusive)
- AC50 [17]: 14.1 µM (inconclusive)

Compound: O=C(/C=C/c1ccco1)Nc1cccc(-c2nc3ccccc3[nH]2)c1
- EC50 [6]: > 150 µM (inactive)
- EC50 [8]: 1.86 µM (active)
- CC50 [13]: 30.8 µM (active)

Compound: C#CCOCCOCCOCCNc1nc(N2CCN(C(=O)[C@H]([C@@H](C)CC)n3cc([C@@H](N)CC(C)C)nn3)CC2)nc(N2CCN(C(=O)[C@H]([C@@H](C)CC)n3cc([C@@H](N)CC(C)C)nn3)CC2)n1
- IC50 [7]: > 20 µM (inactive)

Compound: CC1(C)CC(=O)C2=C(C1)OC(N)=C(C#N)C2c1ccc2c(c1)OCO2 (configuration not stated)
- EC50 [1]: > 300 µM (not active)
- EC50 [2]: > 300 µM (not active)

Compound: CC(=O)OC[C@H]1O[C@@H](O[C@@H]2C[C@H]3C(C)(C)[C@H](OC(C)=O)CC[C@]3(C)[C@H]3CC[C@]45C[C@]4(CC[C@H]5[C@@H](C)C[C@@H](O)[C@H](O)C(C)(C)O)[C@@]32C)[C@H](O)[C@@H](O)[C@@H]1O [CUMINGIANOSIDE A]
- EC50 [18]: 8.19 µM (active)
- CC50 [13]: 27.7 µM (active)
- EC50 [19]: 8.05 µM (active)
